Test results published in PubChem BioAssay AID256 (DTP/NCI, 2004).
Values joined by “and” are separate entries in the source; they are usually repeats but may differ in a detail not shown here. Identical values can stand only once. Inconclusive results and toxic doses are left out.

Test system: CD2F1 mice, L1210 leukemia ip, survival T/C
Experiment: NCI In Vivo Anticancer Drug Screen. Data for tumor model L1210 Leukemia (intraperitoneal) in CD2F1 (CDF1) mice
Details: higher = longer survival
Summary of the method: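 Activity against a transplanted murine tumor was judged by comparing the compound group with a vehicle group. The outcome in the treated animals was divided by that in the controls.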

[1] = endpoint: mean survival time, dose: 25.0 mg/kg/injection, schedule: Q01DX009 (ip), vehicle: Klucel (hydroxypropylcellulose) (HPC)
[2] = endpoint: mean survival time, dose: 50.0 mg/kg/injection, schedule: Q01DX009 (ip), vehicle: Klucel (hydroxypropylcellulose) (HPC)
[3] = endpoint: mean survival time, dose: 100.0 mg/kg/injection, schedule: Q01DX009 (ip), vehicle: Klucel (hydroxypropylcellulose) (HPC)
[4] = endpoint: mean survival time, dose: 50.0 mg/kg/injection, schedule: Q04DX003 (ip), vehicle: saline with Tween-80
[5] = endpoint: mean survival time, dose: 100.0 mg/kg/injection, schedule: Q01DX001 (ip), vehicle: saline with Tween-80
[6] = endpoint: mean survival time, dose: 100.0 mg/kg/injection, schedule: Q04DX003 (ip), vehicle: saline with Tween-80
[7] = endpoint: mean survival time, dose: 200.0 mg/kg/injection, schedule: Q04DX003 (ip), vehicle: saline with Tween-80
[8] = endpoint: mean survival time, dose: 100.0 mg/kg/injection, schedule: Q01DX009 (ip), vehicle: saline with Tween-80
[9] = endpoint: mean survival time, dose: 200.0 mg/kg/injection, schedule: Q01DX009 (ip), vehicle: saline with Tween-80
[10] = endpoint: mean survival time, dose: 400.0 mg/kg/injection, schedule: Q01DX009 (ip), vehicle: saline with Tween-80
[11] = endpoint: mean survival time, dose: 400.0 mg/kg/injection, schedule: Q04DX003 (ip), vehicle: saline with Tween-80
[12] = endpoint: mean survival time, dose: 50.0 mg/kg/injection, schedule: Q01DX001 (ip), vehicle: carboxymethylcellulose (CMC)
[13] = endpoint: mean survival time, dose: 100.0 mg/kg/injection, schedule: Q01DX001 (ip), vehicle: carboxymethylcellulose (CMC)
[14] = endpoint: mean survival time, dose: 200.0 mg/kg/injection, schedule: Q01DX001 (ip), vehicle: carboxymethylcellulose (CMC)
[15] = endpoint: mean survival time, dose: 400.0 mg/kg/injection, schedule: Q01DX001 (ip), vehicle: carboxymethylcellulose (CMC)

## CC(=O)CC(C)(C)C1CCCCC1
[1]
  T/C: 93 % of control
[2]
  T/C: 93 % of control
[3]
  T/C: 96 % of control
endpoint: mean survival time, dose: 200.0 mg/kg/injection, schedule: Q01DX009 (ip), vehicle: Klucel (hydroxypropylcellulose) (HPC)
  T/C: 93 % of control

## BrC(Br)(c1ccccc1)C1OCCO1
endpoint: mean survival time, dose: 50.0 mg/kg/injection, schedule: Q01DX001 (ip), vehicle: saline with Tween-80
  T/C: 107 % of control
[4]
  T/C: 100 % of control
[5]
  T/C: 100 % of control
[6]
  T/C: 101 % of control
endpoint: mean survival time, dose: 200.0 mg/kg/injection, schedule: Q01DX001 (ip), vehicle: saline with Tween-80
  T/C: 102 % of control
[7]
  T/C: 97 % of control

## Cc1cc(=O)[nH]c(N/N=C/c2ccc(N(C)C)cc2)n1
[8]
  T/C: 91 % of control
[6]
  T/C: 104 % of control
[9]
  T/C: 88 % of control
[7]
  T/C: 95 % of control
[10]
  T/C: 86 % of control
[11]
  T/C: 92 % of control

## Nc1ccc2ccccc2c1-c1c(N)ccc2ccccc12
endpoint: mean survival time, dose: 18.7 mg/kg/injection, schedule: Q04DX002 (ip), vehicle: saline with Tween-80
  T/C: 91 % of control
endpoint: mean survival time, dose: 37.5 mg/kg/injection, schedule: Q04DX002 (ip), vehicle: saline with Tween-80
  T/C: 91 % of control
endpoint: mean survival time, dose: 75.0 mg/kg/injection, schedule: Q04DX002 (ip), vehicle: saline with Tween-80
  T/C: 102 % of control

## C=CCN(CC=C)/N=N/c1nc[nH]c1C(N)=O
[6]
  T/C: 98 % of control
[7]
  T/C: 105 % of control
[11]
  T/C: 100 % of control

## COC(=O)CCS(=O)(=O)CCC(=O)OC
endpoint: mean survival time, dose: 100.0 mg/kg/injection, schedule: Q04DX003 (ip), vehicle: Klucel (hydroxypropylcellulose) (HPC)
  T/C: 103 % of control
endpoint: mean survival time, dose: 200.0 mg/kg/injection, schedule: Q04DX003 (ip), vehicle: Klucel (hydroxypropylcellulose) (HPC)
  T/C: 100 % of control
endpoint: mean survival time, dose: 400.0 mg/kg/injection, schedule: Q04DX003 (ip), vehicle: Klucel (hydroxypropylcellulose) (HPC)
  T/C: 103 % of control

## CCOC(=O)c1nc2cc(C)c(C)cc2[nH]c1=O
[8]
  T/C: 95 % of control
[9]
  T/C: 89 % of control
[10]
  T/C: 100 % of control

## O=C1C(=O)N(CNC(c2ccccc2)c2ccccc2)c2ccccc21
[5]
  T/C: 101 % of control
endpoint: mean survival time, dose: 400.0 mg/kg/injection, schedule: Q01DX001 (ip), vehicle: saline with Tween-80
  T/C: 86 % of control

## CN(C)/N=N/c1[nH]ncc1C(N)=O
endpoint: mean survival time, dose: 150.0 mg/kg/injection, schedule: Q01DX001 (oral), vehicle: saline
  T/C: 121 % of control
endpoint: mean survival time, dose: 1200.0 mg/kg/injection, schedule: Q01DX001 (oral), vehicle: saline
  T/C: 158 % of control

## CC1CCC(C(C)C2C(O)CC3C4CC=C5CC(O)CCC5(C)C4CCC32C)NC1 (stereo not drawn)
[4]
  T/C: 93 % of control
[6]
  T/C: 90 % of control and 96 % of control
[7]
  T/C: 87 % of control and 98 % of control

## O=C(CC(O)(C(F)(F)F)C(F)(F)F)CC(O)(C(F)(F)F)C(F)(F)F
endpoint: mean survival time, dose: 5.0 mg/kg/injection, schedule: Q01DX001 (ip), vehicle: saline with Tween-80
  T/C: 94 % of control
endpoint: mean survival time, dose: 5.0 mg/kg/injection, schedule: Q04DX003 (ip), vehicle: saline
  T/C: 102 % of control
endpoint: mean survival time, dose: 10.0 mg/kg/injection, schedule: Q04DX003 (ip), vehicle: saline
  T/C: 92 % of control

## Nc1cc(Cl)cc2c1-c1ccc(Cl)cc1C2Br (stereo not drawn)
[12]
  T/C: 102 % of control
[13]
  T/C: 108 % of control
[14]
  T/C: 108 % of control
[15]
  T/C: 108 % of control

## Cn1c(=O)cc(C=Nc2ccc(S(N)(=O)=O)cc2)c2ccccc21
[8]
  T/C: 90 % of control
[9]
  T/C: 89 % of control
[10]
  T/C: 89 % of control

## COc1ccc(C(=O)C2(O)Oc3ccccc3C2=O)cc1 (stereo not drawn)
endpoint: mean survival time, dose: 50.0 mg/kg/injection, schedule: Q01DX001 (ip), vehicle: saline
  T/C: 98 % of control
endpoint: mean survival time, dose: 100.0 mg/kg/injection, schedule: Q01DX001 (ip), vehicle: saline
  T/C: 98 % of control
endpoint: mean survival time, dose: 200.0 mg/kg/injection, schedule: Q01DX001 (ip), vehicle: saline
  T/C: 98 % of control
endpoint: mean survival time, dose: 400.0 mg/kg/injection, schedule: Q01DX001 (ip), vehicle: saline
  T/C: 117 % of control

## CCOC(=O)CC(C)(C)NCc1ccccc1
[1]
  T/C: 91 % of control
[2]
  T/C: 97 % of control
[3]
  T/C: 91 % of control

## Clc1cc(Cl)c(OCC#CI)c(Cl)c1Cl
[12]
  T/C: 100 % of control
[13]
  T/C: 100 % of control
[14]
  T/C: 100 % of control
[15]
  T/C: 103 % of control

## O=C(COc1ccc(Cl)c(Cl)c1)Nc1ccc[n+](Cc2cccc(Cl)c2S(=O)(=O)F)c1
[6]
  T/C: 97 % of control
[7]
  T/C: 105 % of control

## CCCCC#CC(C)C
[6]
  T/C: 98 % of control
[7]
  T/C: 102 % of control
[11]
  T/C: 102 % of control

## O=C(NC(=S)Nc1ccccc1C(=O)O)c1ccccc1
endpoint: mean survival time, dose: 66.0 mg/kg/injection, schedule: Q01DX009 (ip), vehicle: saline sonified
  T/C: 103 % of control
endpoint: mean survival time, dose: 100.0 mg/kg/injection, schedule: Q01DX009 (ip), vehicle: saline sonified
  T/C: 103 % of control
endpoint: mean survival time, dose: 150.0 mg/kg/injection, schedule: Q01DX009 (ip), vehicle: saline sonified
  T/C: 103 % of control

## CCOC(=O)CCCC/C(C)=N\N=C(C(C)C)C(C)C
endpoint: mean survival time, dose: 75.0 mg/kg/injection, schedule: Q01DX001 (ip), vehicle: other
  T/C: 103 % of control
endpoint: mean survival time, dose: 150.0 mg/kg/injection, schedule: Q01DX001 (ip), vehicle: other
  T/C: 97 % of control
endpoint: mean survival time, dose: 300.0 mg/kg/injection, schedule: Q01DX001 (ip), vehicle: other
  T/C: 89 % of control

## Cc1ccc([Si](OO[Si](c2ccccc2)(c2ccccc2)c2ccc(C)cc2)(c2ccccc2)c2ccccc2)cc1
[8]
  T/C: 98 % of control
[6]
  T/C: 98 % of control
[9]
  T/C: 93 % of control
[7]
  T/C: 100 % of control
[10]
  T/C: 95 % of control
[11]
  T/C: 98 % of control

## COc1cc(NS(C)(=O)=O)ccc1Nc1c2ccc([N+](=O)[O-])cc2nc2c(C)cccc12
endpoint: mean survival time, dose: 3.75 mg/kg/injection, schedule: Q04DX003 (ip), vehicle: saline with Tween-80
  T/C: 151 % of control
endpoint: mean survival time, dose: 7.5 mg/kg/injection, schedule: Q01DX009 (ip), vehicle: saline with Tween-80
  T/C: 111 % of control
endpoint: mean survival time, dose: 7.5 mg/kg/injection, schedule: Q04DX003 (ip), vehicle: saline with Tween-80
  T/C: 164 % of control
endpoint: mean survival time, dose: 15.0 mg/kg/injection, schedule: Q04DX003 (ip), vehicle: saline with Tween-80
  T/C: 235 % of control
endpoint: mean survival time, dose: 37.5 mg/kg/injection, schedule: Q04DX003 (ip), vehicle: saline
  T/C: 109 % of control
endpoint: mean survival time, dose: 75.0 mg/kg/injection, schedule: Q04DX003 (ip), vehicle: saline
  T/C: 86 % of control

## Cc1ccc(NC(=O)c2ccccc2)c(C)c1
[8]
  T/C: 90 % of control
[6]
  T/C: 92 % of control
[9]
  T/C: 86 % of control
[7]
  T/C: 92 % of control
[11]
  T/C: 92 % of control

## CC(=O)C(=O)O.CC(=O)C(=O)O.[NH-]C1CCCCC1[NH-].[Pt+2] (stereo not drawn)
endpoint: mean survival time, dose: 1.56 mg/kg/injection, schedule: Q04DX003 (ip), vehicle: other
  T/C: 109 % of control
endpoint: mean survival time, dose: 12.5 mg/kg/injection, schedule: Q04DX003 (ip), vehicle: other
  T/C: 120 % of control
endpoint: median survival time, dose: 25.0 mg/kg/injection, schedule: Q01DX009 (ip), vehicle: dextrose
  T/C: 87 % of control

## CCCCCCCCC(=O)N1CCCCC1
endpoint: mean survival time, dose: 100.0 mg/kg/injection, schedule: Q04DX003 (ip), vehicle: saline
  T/C: 101 % of control
endpoint: mean survival time, dose: 200.0 mg/kg/injection, schedule: Q04DX003 (ip), vehicle: saline
  T/C: 102 % of control
endpoint: mean survival time, dose: 400.0 mg/kg/injection, schedule: Q04DX003 (ip), vehicle: saline
  T/C: 96 % of control

## Nc1ccc(-c2ccccc2-c2ccccc2)cc1
endpoint: mean survival time, dose: 100.0 mg/kg/injection, schedule: Q01DX009 (ip), vehicle: acetone
  T/C: 101 % of control
endpoint: mean survival time, dose: 200.0 mg/kg/injection, schedule: Q01DX009 (ip), vehicle: acetone
  T/C: 105 % of control

## C#CCNC1=C(C)C(=O)C2=C(C1=O)[C@H](COC(N)=O)[C@]1(O)[C@H]3[C@@H](CN21)N3C (stereo partly drawn)
endpoint: mean survival time, dose: 1.5 mg/kg/injection, schedule: Q01DX001 (ip), vehicle: water
  T/C: 104 % of control
endpoint: mean survival time, dose: 3.0 mg/kg/injection, schedule: Q01DX001 (ip), vehicle: water
  T/C: 102 % of control
endpoint: mean survival time, dose: 6.0 mg/kg/injection, schedule: Q01DX001 (ip), vehicle: water
  T/C: 100 % of control
endpoint: mean survival time, dose: 12.0 mg/kg/injection, schedule: Q01DX001 (ip), vehicle: water
  T/C: 110 % of control
endpoint: mean survival time, dose: 24.0 mg/kg/injection, schedule: Q01DX001 (ip), vehicle: water
  T/C: 110 % of control

## CCC12C(=O)C(CC)(C3=C1c1cccc4cccc3c14)C1C(=O)OC(=O)C12 (stereo not drawn)
[6]
  T/C: 97 % of control
[7]
  T/C: 97 % of control
[11]
  T/C: 97 % of control

## CCCC(Br)C(=O)OCC (stereo not drawn)
endpoint: mean survival time, dose: 50.0 mg/kg/injection, schedule: Q01DX009 (ip), vehicle: saline with Tween-80
  T/C: 96 % of control
[8]
  T/C: 93 % of control
[9]
  T/C: 93 % of control
